Laboratory results published in PubChem BioAssay (NCI).
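Method: 48-hour compound exposure of cells in 96-well plates, five concentrations, linear interpolation of endpoints. TGI marks complete inhibition of growth.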 Where a SMILES comes first, the peptide text is derived from it. [ ]: non-standard residue; d: D form. The star is where a group is joined. NMeV = CN[C@H](C(=O)O)C(C)C; X29 = COc1ccc(CN*)c(OC)c1; Octanoyl = CCCCCCCC(=O)*; dNMeA = CN[C@H](C)C(=O)O

Experiments:
Assay in all cases: NCI-60 cell line screen, 48 h
ACHN renal = tested on: ACHN renal
MDA-MB-435 = tested on: MDA-MB-435
CAKI-1 renal = tested on: CAKI-1 renal
SK-OV-3 ovarian = tested on: SK-OV-3 ovarian
U251 CNS = tested on: U251 CNS
NCI-H23 lung = tested on: NCI-H23 lung
SNB-75 CNS = tested on: SNB-75 CNS
MALME-3M melanoma = tested on: MALME-3M melanoma
EKVX NSCLC = tested on: EKVX NSCLC
SF-295 CNS = tested on: SF-295 CNS
RPMI-8226 leukemia = tested on: RPMI-8226 leukemia
HOP-62 NSCLC = tested on: HOP-62 NSCLC
UACC-62 melanoma = tested on: UACC-62 melanoma
PC-3 prostate = tested on: PC-3 prostate
SK-MEL-28 melanoma = tested on: SK-MEL-28 melanoma
COLO 205 colon = tested on: COLO 205 colon

Row | Structure (SMILES) | TGI (ACHN renal) | TGI (MDA-MB-435) | TGI (CAKI-1 renal) | TGI (SK-OV-3 ovarian) | TGI (U251 CNS) | TGI (NCI-H23 lung) | TGI (SNB-75 CNS) | TGI (MALME-3M melanoma) | TGI (EKVX NSCLC) | TGI (SF-295 CNS) | TGI (RPMI-8226 leukemia) | TGI (HOP-62 NSCLC) | TGI (UACC-62 melanoma) | TGI (PC-3 prostate) | TGI (SK-MEL-28 melanoma) | TGI (COLO 205 colon)
1 | CN1c2ccccc2C(=O)NC12CCN(CCCC(=O)c1ccc(F)cc1)CC2 | > 100 µM | > 100 µM | > 100 µM | > 100 µM | > 100 µM | > 100 µM | > 100 µM | 86.5 µM | > 100 µM | > 100 µM | > 100 µM | > 100 µM | > 100 µM | > 100 µM | > 100 µM | 30.4 µM
2 | NC(N)=NCC[C@H](NC(=O)OCCCCCn1ccc(=O)[nH]c1=O)C(=O)O | > 100 µM | > 100 µM | > 100 µM | > 100 µM | > 100 µM | > 100 µM | > 100 µM | > 100 µM | > 100 µM | > 100 µM | > 100 µM | > 100 µM | > 100 µM | > 100 µM | > 100 µM | > 100 µM
3 | Oc1ccc(-c2cc(-c3cc(-c4ccc(O)cc4)no3)on2)cc1 | > 100 µM | > 100 µM | > 100 µM | > 100 µM | > 100 µM | > 100 µM | > 100 µM | > 100 µM | > 100 µM | > 100 µM | > 100 µM | > 100 µM | > 100 µM | > 100 µM | > 100 µM | > 100 µM
4 | CCCCCCCC(=O)N[C@H](C(=O)N[C@H](C(=O)N(C)[C@H](C(=O)N1CCC[C@H]1C(=O)N(C)[C@H](C)C(=O)NCc1ccc(OC)cc1OC)C(C)C)C(C)C)C(C)C (Octanoyl-VV[NMeV]P[dNMeA]-X29) | 42.4 µM | 28.9 µM | > 86.3 µM | > 100 µM | > 85.5 µM | > 82.4 µM | > 100 µM | 24.3 µM | 97.3 µM | > 88.7 µM | > 26.3 µM | > 100 µM | 23.7 µM | 58.7 µM | > 68.2 µM | 22.7 µM
5 | COc1cc2c3c(c1)CCCN3CCC2 | > 10 µM | > 10 µM | > 10 µM | > 10 µM | > 10 µM | > 10 µM | > 10 µM | > 10 µM | > 10 µM | > 10 µM | > 10 µM | > 10 µM | > 10 µM | > 10 µM | > 10 µM | > 10 µM
6 | CCN(CC)CC1CCCCN1CC(=O)N1c2ccccc2C(=O)Nc2cccnc21 (centres undefined) | > 100 µM | > 100 µM | > 100 µM | > 100 µM | > 100 µM | > 100 µM | > 100 µM | > 100 µM | > 100 µM | > 100 µM | 74.2 µM | > 100 µM | > 100 µM | > 100 µM | > 100 µM | 64.6 µM
7 | CC1(C)C=Cc2c(cc(O)c3c(=O)c4cc(Cl)ccc4[nH]c23)O1 | > 10 µM | > 10 µM | > 10 µM | > 10 µM | > 10 µM | 6.54 µM | > 10 µM | 7.5 µM | > 10 µM | 8.25 µM | 6.27 µM | > 10 µM | > 10 µM | 7.12 µM | > 10 µM | > 10 µM
8 | CN(C)c1ccc(C(Cc2ccccc2)C2NC(=S)NC2=O)cc1 (centres undefined) | > 100 µM | > 100 µM | > 100 µM | > 100 µM | > 100 µM | > 100 µM | > 100 µM | > 100 µM | > 100 µM | > 100 µM | > 100 µM | > 100 µM | > 100 µM | > 100 µM | > 100 µM | > 100 µM
9 | C[C@]12CC[C@@H]3c4cc(OCC(F)(F)F)c(O)cc4CC[C@H]3[C@@H]1CC[C@@H]2O | 47.1 µM | 1.1 µM | 29.9 µM | 16.8 µM | 18.3 µM | 19.3 µM | 13.2 µM | 19 µM | 30.7 µM | 11.6 µM | 23.1 µM | 26.7 µM | 17.3 µM | 13.8 µM | 26.2 µM | 28.2 µM
